Assay results reported in patent US12606543B2, “Indole derivatives as serotonergic agents useful for the treatment of disorders related thereto” (priority 2023, dated 2026).

How the values were obtained:
[1] = Liver microsomes stability, mouse; assay type: in vitro ADME; conditions: for half-life at 2 μM / microsomal CLint at 2 μM / CLint scaled at 2 μM: male; for CLint scaled at 2 μM: read-out: Scaled-up CLint
Method: (§1) The objective of this study was to estimate in vitro metabolic stability of exemplary compounds of Formula (I) or a pharmaceutically acceptable salt, solvate, and/or prodrug thereof in pooled human, male rat, and male mouse liver microsomes. The concentrations of compounds in reaction systems were evaluated by LC-MS/MS for estimating the stability in pooled human, male rat, and male mouse liver microsomes. The in vitro intrinsic clearances of test compounds were determined as well.
(§2) A master solution in the “Incubation Plate” containing phosphate buffer, ultra-pure H2O, MgCl2 solution and liver microsomes was made according to Table 33. The mixture was pre-warmed at 37° C. water bath for 5 minutes.
(§3) 40 μL of 10 mM nicotinamide adenine dinucleotide phosphate (NADPH) solution was added to each well. The final concentration of NADPH was 1 mM. The negative control samples were prepared by replacing NADPH with 40 μL of ultra-pure H2O. Samples were prepared in duplicate. Negative controls were prepared in singlet.
(§4) The reaction was started with the addition of 4 μL of 200 μM exemplary test compounds of the disclosure or control compounds to each master solution to get the final concentration of 2 μM. This study was performed in duplicate.
(§5) Aliquots of 50 μL were taken from the reaction solution at 0, 15, 30, 45, and 60 minutes. The reaction solutions were stopped by the addition of 4 volumes of cold methanol with IS (100 nM alprazolam, 200 nM imipramine, 200 nM labetalol, and 2 μM ketoprofen). Samples were centrifuged at 3,220 g for 40 minutes. Aliquot of 90 μL of the supernatant was mixed with 90 μL of ultra-pure H2O and then was used for LC-MS/MS analysis.
(§6) LC/MS analysis was performed for all samples from this study using a Shimadzu liquid chromatograph separation system equipped with degasser DGU-20A5R; solvent delivery unit LC-30AD; system controller SIL-30AC; column oven CTO-30A; CTC Analytics HTC PAL System. Mass spectrometric analysis was performed using a Triple Quad™ 5500 instrument.
(§7) All calculations were carried out using Microsoft Excel. Peak area ratios of test compound to internal standard (listed in the below table) were determined from extracted ion chromatograms.
(§8) All calculations were carried out using Microsoft Excel. Peak areas were determined from extracted ion chromatograms. The slope value, k, was determined by linear regression of the natural logarithm of the remaining percentage of the parent drug vs. incubation time curve.
(§9) The in vitro half-life (in vitro t1/2) was determined from the slope value:
(§10) Conversion of the in vitro t1/2 (min) into the in vitro intrinsic clearance (in vitro CLint, in μL/min/mg proteins) was done using the following equation (mean of duplicate determinations): […]
as §1, with “solvate” for “solvate,”, “rat” for “rat,”
(§11) A master solution in the “Incubation Plate” containing phosphate buffer, ultra-pure H2O, MgCl2 solution and liver microsomes was made according to Table 67. The mixture was pre-warmed at 37° C. water bath for 5 minutes.
(§12) 40 μL of 10 mM NADPH solution was added to each well. The final concentration of NADPH was 1 mM. The negative control samples were prepared by replacing NADPH with 40 μL of ultra-pure H2O. Samples were prepared in duplicate. Negative controls were prepared in singlet
(§13) Aliquots of 50 μL were taken from the reaction solution at 0, 15, 30, 45 and 60 minutes. The reaction solutions were stopped by the addition of 4 volumes of cold methanol with IS (100 nM alprazolam, 200 nM imipramine, 200 nM labetalol and 2 μM ketoprofen). […]

[2] = Liver microsomes stability, rat; assay type: in vitro ADME; conditions: for half-life at 2 μM / microsomal CLint at 2 μM / CLint scaled at 2 μM: male; for CLint scaled at 2 μM: read-out: Scaled-up CLint
Method: as §1, §2, §3, §4, §5, §6, §7, §8, §9, §10
as §1, with “solvate” for “solvate,”, “rat” for “rat,”
as §11, §12, §13

[3] = Plasma protein binding by equilibrium dialysis, rat; conditions: for recovery at 6 h, 1 µM / fraction unbound at 6 h, 1 μM: rat; for fraction unbound at 6 h, 1 μM: plasma
Method: 1. The Frozen Plasma (Stored at −80° C.) was Thawed Immediately in a 37° C. Water Bath.
(§14) The working solution of test compounds and control compound was prepared in DMSO at the concentration of 200 μM, and then the working solution was spiked into plasma. The final concentration of compound was 1 μM. The final concentration of DMSO was 0.5%. Ketoconazole was used as positive control in the assay.
The dialysis membranes were soaked in ultrapure water for 60 minutes to separate strips, then in 20% ethanol for 20 minutes, finally in dialysis buffer for 20 minutes.
The dialysis set up was assembled according to the manufacturer's instruction. Each Cell was with 150 μL of plasma sample and dialyzed against equal volume of dialysis buffer (PBS). The assay was performed in duplicate. The dialysis plate was sealed and incubated in an incubator at 37° C. with 5% CO2 at 100 rpm for 6 hours. At the end of incubation, 50 μL of samples from both buffer and plasma chambers were transferred to wells of a 96-well plate.
50 μL of plasma was added to each buffer samples and an equal volume of PBS was supplemented to the collected plasma sample. 400 μL of precipitation buffer acetonitrile containing internal standards (IS, 200 nM labetalol, 100 nM tolbutamide and 100 nM ketoprofen) was added to precipitate protein and release compounds. Samples were vortexed for 2 minutes and centrifuged for 30 minutes at 3,220 g. Aliquot of 50 μL of the supernatant was diluted by 150 μL acetonitrile containing internal standards: ultra-pure H2O=1:1, and the mixture was used for LC-MS/MS analysis.
All calculations were carried out using Microsoft Excel. The concentrations of test compounds in the buffer and plasma chambers were determined from peak area ratios. The percentages of bound compound were calculated as follows: […]
as §14, with “[…].” for “μM.”

[4] = pooled liver microsomes, mouse liver microsomes, 2 μM compound, 0.5 mg/mL microsomes
[5] = mouse liver microsomes, With Cofactors, 0 min
[6] = mouse liver microsomes, With Cofactors, 30 min
[7] = mouse liver microsomes, With Cofactors, 60 min
[8] = mouse liver microsomes, Without Cofactors, 0 min
[9] = mouse liver microsomes, Without Cofactors, 30 min
[10] = mouse liver microsomes, Without Cofactors, 60 min
[11] = rat liver microsomes, 2 μM compound, 0.5 mg/mL microsomes
[12] = rat liver microsomes, With Cofactors, 0 min
[13] = rat liver microsomes, With Cofactors, 30 min
[14] = rat liver microsomes, With Cofactors, 60 min
[15] = rat liver microsomes, Without Cofactors, 0 min
[16] = rat liver microsomes, Without Cofactors, 30 min
[17] = rat liver microsomes, Without Cofactors, 60 min
[18] = Rat liver microsomes, 2 μM, 0.5 mg/mL, NADPH

[2H]C([2H])(c1c[nH]c2ccc(OCCCCCN3C(=O)C4CCCCC4C3=O)cc12)[C@H]1CCCN1C([2H])([2H])[2H] (mixture of isomers) [Rac (R) I-248]
half-life at 2 μM [1, 4]: < 4.51 min
microsomal CLint at 2 μM [1, 4]: > 307 µL/min/mg
CLint scaled at 2 μM ([1]; mouse liver microsomes): > 1340 mL/min/kg
Predicted hepatic CL ([1]; mouse liver microsomes): >84.35 mL/min/kg
Remaining Percentage [1, 5]: 100.00%
Remaining Percentage [1, 6]: 0.15%
Remaining Percentage [1, 7]: 0.19%
Remaining Percentage [1, 8]: 100.00%
Remaining Percentage [1, 9]: 99.54%
Remaining Percentage [1, 10]: 95.85%
half-life at 2 μM [2, 11]: < 4.51 min
microsomal CLint at 2 μM [2, 11]: > 307 µL/min/mg
CLint scaled at 2 μM ([2]; rat liver microsomes): > 550 mL/min/kg
Predicted hepatic CL ([2]; rat liver microsomes): >50.17 mL/min/kg
Remaining Percentage [2, 12]: 100.00%
Remaining Percentage [2, 13]: 0.95%
Remaining Percentage [2, 14]: 0.19%
Remaining Percentage [2, 15]: 100.00%
Remaining Percentage [2, 16]: 94.04%
Remaining Percentage [2, 17]: 94.04%

CSc1ccc2[nH]cc(C[C@H]3CCCN3C)c2c1 [(R) I-1, (R)-3-((1-Methylpyrrolidin-2-yl)methyl)-5-(methylthio)-1H-indole]
Predicted hepatic CL ([1]; Mouse liver microsomes): >84.35 mL/min/kg
half-life at 2 μM ([1]; Mouse liver microsomes, 2 μM, 0.5 mg/mL, NADPH, <4.51 if % remaining at 30 min below 1%): < 4.51 min
microsomal CLint at 2 μM ([1]; Mouse liver microsomes, 2 μM, 0.5 mg/mL, NADPH, >307.01 if % remaining at 30 min below 1%): > 307 µL/min/mg
CLint scaled at 2 μM ([1]; mouse liver microsomes): > 1340 mL/min/kg
Remaining Percentage (%) 0 min [1, 5]: 100.00%
Remaining Percentage (%) 30 min [1, 6]: 0.15%
Remaining Percentage (%) 60 min [1, 7]: 0.23%
Remaining Percentage (%) 0 min [1, 8]: 100.00%
Remaining Percentage (%) 30 min [1, 9]: 98.55%
Remaining Percentage (%) 60 min [1, 10]: 103.02%
Predicted hepatic CL ([2]; Rat liver microsomes): 44.80 mL/min/kg
Remaining Percentage (%) 0 min ([2]; Rat liver microsomes, With Cofactors, 0 min): 100.00%
Remaining Percentage (%) 30 min ([2]; Rat liver microsomes, With Cofactors, 30 min): 13.67%
Remaining Percentage (%) 60 min ([2]; Rat liver microsomes, With Cofactors, 60 min): 0.44%
Remaining Percentage (%) 0 min ([2]; Rat liver microsomes, Without Cofactors, 0 min): 100.00%
Remaining Percentage (%) 30 min ([2]; Rat liver microsomes, Without Cofactors, 30 min): 93.44%
Remaining Percentage (%) 60 min ([2]; Rat liver microsomes, Without Cofactors, 60 min): 95.17%
half-life at 2 μM [2, 18]: 10.4 min
microsomal CLint at 2 μM [2, 18]: 133 µL/min/mg
CLint scaled at 2 μM ([2]; Rat liver microsomes): 238 mL/min/kg
% Remaining @ 6 hours ([3]; Rat plasma, 1 μM, 37° C.): 105.76%
recovery at 6 h, 1 µM ([3]; SD): 103%
fraction unbound at 6 h, 1 μM ([3]; Sprague-Dawley): 0.534

COCCN1CCC[C@@H]1Cc1c[nH]c2ccc(OC)cc12 [(R) I-98, (R)-5-Methoxy-3-((1-(2-methoxyethyl)pyrrolidin-2-yl)methyl)-1H-indole]
half-life at 2 μM [1, 4]: 14.4 min
microsomal CLint at 2 μM [1, 4]: 96.3 µL/min/mg
CLint scaled at 2 μM ([1]; mouse liver microsomes): 421 mL/min/kg
Predicted hepatic CL ([1]; mouse liver microsomes): 74.16 mL/min/kg
Remaining Percentage [1, 6]: 100.00%
Remaining Percentage [1, 7]: 14.54%
Remaining Percentage [1, 9]: 100.00%
Remaining Percentage [1, 10]: 100.99%
half-life at 2 μM [2, 11]: 10 min
microsomal CLint at 2 μM [2, 11]: 138 µL/min/mg
CLint scaled at 2 μM ([2]; rat liver microsomes): 248 mL/min/kg
Predicted hepatic CL ([2]; rat liver microsomes): 45.13 mL/min/kg
Remaining Percentage [2, 13]: 100.00%
Remaining Percentage [2, 14]: 14.43%
Remaining Percentage [2, 16]: 100.00%
Remaining Percentage [2, 17]: 103.23%
fraction unbound at 6 h, 1 μM ([3]; SD): 0.569
recovery at 6 h, 1 µM ([3]; Sprague-Dawley (SD)): 88%
% Remaining @ 6 hours ([3]; rat plasma): 96.55%

[2H]C([2H])(c1c[nH]c2ccc(OCCCCN3C(=O)c4ccccc4C3=O)cc12)[C@H]1CCCN1C([2H])([2H])[2H] [(R) I-244, (R)-2-(4-((3-((1-(Methyl-d3)pyrrolidin-2-yl)methyl-d2)-1H-indol-5-yl)oxy)butyl)isoindoline-1,3-dione]
half-life at 2 μM [1, 4]: < 4.51 min
microsomal CLint at 2 μM [1, 4]: > 307 µL/min/mg
CLint scaled at 2 μM ([1]; mouse liver microsomes): > 1340 mL/min/kg
Predicted hepatic CL ([1]; mouse liver microsomes): >84.35 mL/min/kg
Remaining Percentage [1, 5]: 100.00%
Remaining Percentage [1, 6]: 0.00%
Remaining Percentage [1, 7]: 0.00%
Remaining Percentage [1, 8]: 100.00%
Remaining Percentage [1, 9]: 98.38%
Remaining Percentage [1, 10]: 86.59%
half-life at 2 μM [2, 11]: 6.89 min
microsomal CLint at 2 μM [2, 11]: 201 µL/min/mg
CLint scaled at 2 μM ([2]; rat liver microsomes): 360 mL/min/kg
Predicted hepatic CL ([2]; rat liver microsomes): 47.87 mL/min/kg
Remaining Percentage [2, 12]: 100.00%
Remaining Percentage [2, 13]: 4.90%
Remaining Percentage [2, 14]: 0.57%
Remaining Percentage [2, 15]: 100.00%
Remaining Percentage [2, 16]: 94.87%
Remaining Percentage [2, 17]: 87.40%
fraction unbound at 6 h, 1 μM ([3]; SD): 0.19
recovery at 6 h, 1 µM ([3]; Sprague-Dawley (SD)): 86.5%
% Remaining @ 6 hours ([3]; rat plasma): 85.45%

[2H]C([2H])(c1c[nH]c2ccc(OCCCCCN3C(=O)c4ccccc4C3=O)cc12)[C@H]1CCCN1C([2H])([2H])[2H] [(R) I-245, (R)-2-(5-((3-((1-(Methyl-d3)pyrrolidin-2-yl)methyl-d2)-1H-indol-5-yl)oxy)pentyl)isoindoline-1,3-dione]
half-life at 2 μM [1, 4]: 5.12 min
microsomal CLint at 2 μM [1, 4]: 271 µL/min/mg
CLint scaled at 2 μM ([1]; mouse liver microsomes): 1180 mL/min/kg
Predicted hepatic CL ([1]; mouse liver microsomes): 83.65 mL/min/kg
Remaining Percentage [1, 5]: 100.00%
Remaining Percentage [1, 6]: 1.72%
Remaining Percentage [1, 7]: 0.25%
Remaining Percentage [1, 8]: 100.00%
Remaining Percentage [1, 9]: 100.00%
Remaining Percentage [1, 10]: 93.17%
half-life at 2 μM [2, 11]: < 4.51 min
microsomal CLint at 2 μM [2, 11]: > 307 µL/min/mg
CLint scaled at 2 μM ([2]; rat liver microsomes): > 550 mL/min/kg
Predicted hepatic CL ([2]; rat liver microsomes): >50.17 mL/min/kg
Remaining Percentage [2, 12]: 100.00%
Remaining Percentage [2, 13]: 0.62%
Remaining Percentage [2, 14]: 0.00%
Remaining Percentage [2, 15]: 100.00%
Remaining Percentage [2, 16]: 95.83%
Remaining Percentage [2, 17]: 94.10%
